# “Also recorded” adds a separate entry of the source.
# Legend:
# Assay type in all cases: cell-based, human
# H1 cell line = assay: C-Peptide+/NKX6-1+ beta-like cells by flow cytometry at day 23; details: treatment day 8 to day 13: WIKI4 9 uM, G007-LK 5 uM, JW74 10 uM, JW55 5 uM
# Source text: Flow cytometry analysis for C-Peptide (a surrogate for insulin) and NKX6.1 performed at day 23 of differentiation, showing high percentage of C-peptide+/NKX6-1+ cells (beta-like cells). Numbers in each quadrant indicate the relevant percentage of the total population. Results shown are from H1 cell line.
# FIG. 7 show specific tankyrase inhibitors generate high percentages of beta-like cells as measured by C-peptide/NKX6-1 double positive cells using H1 cell line. […] Results shown are from H1 cell line. Error bars represent SEM. n=4 for all, n=1 for JW74.
# INS^GFP/W reporter line [1] = assay: INSULIN:GFP+ cells by fluorescence imaging and flow cytometric analysis after further differentiation; details: NE + IWR-1-endo 3 uM or WIKI4 9 uM day 8 to day 13; read day 21/23; compared with XAV939 1.5 uM and MN64 3 uM
# Protocol: Cells treated with various tankyrase pathway inhibitors (Cell treated with NE alone or NE in combination with tankyras inhibitors (NE+XAV939 1.5 uM, NE+IWR-1-endo 3 uM, NE+MN64 3 uM, NE+WIKI4 9 uM)) between day 8 and day 13 of differentiation were differentiated for an additional 10 days using a modified version of the differentiation protocol developed by Rezania and Pagliuca (Rezania et al 2014, Pagliuca 2014). Representative bright field and fluorescent images of cellular aggregates are shown at day 23 of differentiation. Results shown are from INS^GFP/W reporter line.
# Quantification of the percentage of INSULIN:GFP+ cells measured by flow cytometric analysis at day 23 of differentiation, arising from cells treated or untreated with different compounds: XAV939, IWR-1, MN64, WIKI4. Cells were treated using NE (−) or NE in combination with different compounds: XAV939 1.5 uM, IWR-1 3 uM, MN64 3 uM, WIKI4 9 uM. Results shown are from INS^GFP/W reporter line, Error bars represent standard deviation. n=4.
# In this report we present a new method to generate PDX1+/NKX6.1+ endoderm from a variety of hPSC lines. […] (See FIGS. 1-5).
# INS^GFP/W reporter line [2] = assay: Insulin transcript by QPCR normalized to TBP; details: day 23; WIKI4 9 uM compared to IWR-1 3 uM, MN64 3 uM, XAV939 1.5 uM
# Protocol: Cells treated with different tankyrase inhibitors express different amounts of insulin transcript, as measured by QPCR. Shown is the relative expression of insulin transcript normalized to the housekeeping gene TBP (TATA Binding Protein) at day 23 of differentiation, where pancreatic progenitor cells were generated by treating cells with or without XAV939, IWR-1, MN64, WIKI4 (XAV939 1.5 uM, IWR-1 3 uM, MN64 3 uM, WIKI4 9 uM). Adult pancreas is used as positive control. Results shown are from INS^GFP/W reporter line. Error bars represent standard deviation. n=3.
Compound,percentage of C-Peptide+/NKX6-1+ beta-like cells (H1 cell line),percentage of INSULIN:GFP+ cells (INS^GFP/W reporter line [1]),relative expression of insulin transcript (INS mRNA) normalized to TBP (INS^GFP/W reporter line [2])
CS(=O)(=O)c1ccc(-c2nnc(/C=C/c3nnc(-c4ccc(C#N)cc4)o3)n2-c2ccccc2Cl)nc1 [G007-LK],able to generate a population of C-peptide+/NKX6.1+ insulin-expressing beta-like cells,,
O=C(Nc1cccc2cccnc12)c1ccc(N2C(=O)[C@@H]3[C@H](C2=O)[C@@H]2C=C[C@H]3C2)cc1 [IWR-1],,higher percentages of INSGFP+ cells; also recorded: higher percentages of Insulin:GFP+ cells,
COc1ccc(-n2c(SCCCN3C(=O)c4cccc5cccc(c45)C3=O)nnc2-c2ccncc2)cc1 [WIKI4],high percentages of C-Peptide+/NKX6-1+ insulin expressing beta-like cells; also recorded: able to generate a population of C-peptide+/NKX6.1+ insulin-expressing beta-like cells,higher percentages of INSGFP+ cells; also recorded: higher percentages of Insulin:GFP+ cells,higher levels of INS mRNA
COc1ccc(C2(CNC(=O)c3ccc(NC(=O)c4ccco4)cc3)CCOCC2)cc1 [JW55],able to generate a population of C-peptide+/NKX6.1+ insulin-expressing beta-like cells,,
COc1ccc(-n2c(SCc3nc(-c4ccc(C)cc4)no3)nnc2-c2ccncc2)cc1 [JW74],able to generate a population of C-peptide+/NKX6.1+ insulin-expressing beta-like cells,,
